In the supplement of paper PMC10307832:

compound: CCOC(=O)CCNc1cc(N2CCc3ccccc3CC2)nc(-c2ccccn2)n1 [GSK-J4] + CS(=O)(=O)N1CCN(Cc2cc3nc(-c4cccc5[nH]ncc45)nc(N4CCOCC4)c3s2)CC1 [Pictilisib] (partner 1 µM); assay: relative viability (nuclei count vs DMSO), 5 days (fraction); higher = more cells survive; settings: first compound 0.5 µM
Procedure, shortened: (§1)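 Lung cancer cell lines were seeded in 1536-well plates and dosed by pin tool the next day, with either a single drug or a fixed anchor-drug dose combined with five library-drug doses (not always all listed) spaced in √10 steps. Five days later, one step fixed the cells and stained their nuclei (final 0.05% Triton X-100, 1% formaldehyde, 1 ug/ml Hoechst), and nuclei were counted on 4× images. Relative viability is the nuclei count in treated wells divided by the count in vehicle wells, and each value is the median of duplicate plates.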

Q: NCI-H1650 was tested. Which relative viability did it give?
A: 0.644

Q: NCI-H1915 was tested. Which relative viability did it give?
A: 0.905

Q: For NCI-H2087, which relative viability is on record?
A: 0.816

Q: With HCC-366 as the cell line, how does the relative viability read?
A: 0.125

Q: Which relative viability does the source give for NCI-H1793 here?
A: 0.249

Q: For RERF-LC-KJ, which relative viability is on record?
A: 0.465

Q: For EMC-BAC-2, which relative viability is on record?
A: 0.627

Q: NCI-H1651 was tested. Which relative viability did it give?
A: 0.578

Q: How did the relative viability turn out when NCI-H2170 was run?
A: 0.325

Q: With NCI-H2009 as the cell line, how does the relative viability read?
A: 0.816

Q: ABC-1 was tested. Which relative viability did it give?
A: 0.686

Q: SK-MES-1 was tested. Which relative viability did it give?
A: 0.37

Q: NCI-H727 was tested. Which relative viability did it give?
A: 0.379

Q: Which relative viability does the source give for SW 1573 here?
A: 0.526

same assay, conditions: first compound 1.581 µM

Q: NCI-H1650 was tested. Which relative viability did it give?
A: 0.258

Q: How did the relative viability turn out when NCI-H1915 was run?
A: 0.774

Q: NCI-H2087 was tested. Which relative viability did it give?
A: 0.341

Q: For NCI-H1793, which relative viability is on record?
A: 0.171

Q: For RERF-LC-KJ, which relative viability is on record?
A: 0.459

Q: For EMC-BAC-2, which relative viability is on record?
A: 0.597

Q: For NCI-H1651, which relative viability is on record?
A: 0.416

Q: Which relative viability does the source give for NCI-H2170 here?
A: 0.381

Q: For NCI-H2009, which relative viability is on record?
A: 0.317

Q: With ABC-1 as the cell line, how does the relative viability read?
A: 0.591

Q: With SK-MES-1 as the cell line, how does the relative viability read?
A: 0.265

Q: SW 1573 was tested. Which relative viability did it give?
A: 0.562

same assay, conditions: first compound 5 µM

Q: How did the relative viability turn out when NCI-H1650 was run?
A: 0.622

Q: NCI-H1915 was tested. Which relative viability did it give?
A: 0.901

Q: With HCC-366 as the cell line, how does the relative viability read?
A: 0.137

Q: NCI-H1793 was tested. Which relative viability did it give?
A: 0.54

Q: With RERF-LC-KJ as the cell line, how does the relative viability read?
A: 0.639

Q: For EMC-BAC-2, which relative viability is on record?
A: 0.423

Q: LCLC-97TM1 was tested. Which relative viability did it give?
A: 0.399

Q: NCI-H1651 was tested. Which relative viability did it give?
A: 0.668

Q: For NCI-H2170, which relative viability is on record?
A: 0.27

Q: NCI-H2009 was tested. Which relative viability did it give?
A: 0.673

Q: How did the relative viability turn out when ABC-1 was run?
A: 0.671

Q: For SK-MES-1, which relative viability is on record?
A: 0.394

Q: For NCI-H727, which relative viability is on record?
A: 0.691

Q: SW 1573 was tested. Which relative viability did it give?
A: 0.549

same assay, conditions: first compound 15.81 µM

Q: Which relative viability does the source give for NCI-H1650 here?
A: 0.533

Q: How did the relative viability turn out when NCI-H1915 was run?
A: 0.962

Q: With NCI-H2087 as the cell line, how does the relative viability read?
A: 0.999

Q: Which relative viability does the source give for HCC-366 here?
A: 0.181

Q: How did the relative viability turn out when NCI-H1793 was run?
A: 0.364

Q: For RERF-LC-KJ, which relative viability is on record?
A: 0.635

Q: How did the relative viability turn out when EMC-BAC-2 was run?
A: 0.598

Q: LCLC-97TM1 was tested. Which relative viability did it give?
A: 0.249

Q: For NCI-H1651, which relative viability is on record?
A: 0.639

Q: With NCI-H2170 as the cell line, how does the relative viability read?
A: 0.357

Q: Which relative viability does the source give for NCI-H2009 here?
A: 0.85

Q: For ABC-1, which relative viability is on record?
A: 0.648

Q: For SK-MES-1, which relative viability is on record?
A: 0.348

Q: Which relative viability does the source give for NCI-H727 here?
A: 0.427

Q: SW 1573 was tested. Which relative viability did it give?
A: 0.544

same assay, conditions: first compound 50 µM

Q: How did the relative viability turn out when NCI-H1650 was run?
A: 0.291

Q: How did the relative viability turn out when NCI-H1915 was run?
A: 1.03

Q: For NCI-H2087, which relative viability is on record?
A: 0.424

Q: Which relative viability does the source give for HCC-366 here?
A: 0.122

Q: NCI-H1793 was tested. Which relative viability did it give?
A: 0.337

Q: How did the relative viability turn out when RERF-LC-KJ was run?
A: 0.434

Q: EMC-BAC-2 was tested. Which relative viability did it give?
A: 0.52

Q: LCLC-97TM1 was tested. Which relative viability did it give?
A: 0.15

Q: How did the relative viability turn out when NCI-H1651 was run?
A: 0.389

Q: NCI-H2170 was tested. Which relative viability did it give?
A: 0.221

Q: With NCI-H2009 as the cell line, how does the relative viability read?
A: 0.428

Q: For ABC-1, which relative viability is on record?
A: 0.436

Q: Which relative viability does the source give for SK-MES-1 here?
A: 0.34

Q: NCI-H727 was tested. Which relative viability did it give?
A: 0.18

Q: SW 1573 was tested. Which relative viability did it give?
A: 0.294

compound: CN1CCC(CC1)OC2=CC(=C(C=C2)NC3=NC=C4C(=N3)N(C(=O)N4C)C5CCCC5)OC [AZ3146] + CS(=O)(=O)CCNCc1ccc(-c2ccc3ncnc(Nc4ccc(OCc5cccc(F)c5)c(Cl)c4)c3c2)o1 [Lapatinib] (partner 2 µM); assay: as above; settings: first compound 0.08 µM
Procedure, shortened: as §1

Q: NCI-H1650 was tested. Which relative viability did it give?
A: 0.649

Q: NCI-H1915 was tested. Which relative viability did it give?
A: 1.05

Q: How did the relative viability turn out when NCI-H2087 was run?
A: 0.899

Q: Which relative viability does the source give for HCC-366 here?
A: 1

Q: Which relative viability does the source give for NCI-H1793 here?
A: 0.649

Q: RERF-LC-KJ was tested. Which relative viability did it give?
A: 0.816

Q: With EMC-BAC-2 as the cell line, how does the relative viability read?
A: 0.85

Q: NCI-H1651 was tested. Which relative viability did it give?
A: 0.757

Q: Which relative viability does the source give for NCI-H2170 here?
A: 0.265

Q: For NCI-H2009, which relative viability is on record?
A: 0.817

Q: Which relative viability does the source give for ABC-1 here?
A: 1.24

Q: For SK-MES-1, which relative viability is on record?
A: 0.496

Q: With NCI-H727 as the cell line, how does the relative viability read?
A: 0.745

Q: SW 1573 was tested. Which relative viability did it give?
A: 1.19

same assay, conditions: first compound 0.253 µM

Q: For NCI-H1650, which relative viability is on record?
A: 1.12

Q: For NCI-H1915, which relative viability is on record?
A: 0.864

Q: For NCI-H2087, which relative viability is on record?
A: 1.08

Q: HCC-366 was tested. Which relative viability did it give?
A: 1.1

Q: How did the relative viability turn out when NCI-H1793 was run?
A: 0.853

Q: How did the relative viability turn out when RERF-LC-KJ was run?
A: 0.889

Q: EMC-BAC-2 was tested. Which relative viability did it give?
A: 0.845

Q: Which relative viability does the source give for NCI-H1651 here?
A: 0.854

Q: For NCI-H2170, which relative viability is on record?
A: 0.283

Q: Which relative viability does the source give for NCI-H2009 here?
A: 0.975

Q: Which relative viability does the source give for ABC-1 here?
A: 1.15

Q: SK-MES-1 was tested. Which relative viability did it give?
A: 0.43

Q: How did the relative viability turn out when NCI-H727 was run?
A: 0.557

Q: How did the relative viability turn out when SW 1573 was run?
A: 1.17

same assay, conditions: first compound 0.8 µM

Q: Which relative viability does the source give for NCI-H1650 here?
A: 0.562

Q: With NCI-H1915 as the cell line, how does the relative viability read?
A: 1.04

Q: With NCI-H2087 as the cell line, how does the relative viability read?
A: 1.08

Q: With HCC-366 as the cell line, how does the relative viability read?
A: 1.01

Q: With NCI-H1793 as the cell line, how does the relative viability read?
A: 0.492

Q: With RERF-LC-KJ as the cell line, how does the relative viability read?
A: 0.839

Q: How did the relative viability turn out when EMC-BAC-2 was run?
A: 0.954

Q: With LCLC-97TM1 as the cell line, how does the relative viability read?
A: 1.2

Q: With NCI-H1651 as the cell line, how does the relative viability read?
A: 0.815

Q: For NCI-H2170, which relative viability is on record?
A: 0.252

Q: With NCI-H2009 as the cell line, how does the relative viability read?
A: 1.06

Q: For ABC-1, which relative viability is on record?
A: 1.33

Q: Which relative viability does the source give for SK-MES-1 here?
A: 0.424

Q: With NCI-H727 as the cell line, how does the relative viability read?
A: 0.79

Q: How did the relative viability turn out when SW 1573 was run?
A: 1.07

same assay, conditions: first compound 2.53 µM

Q: Which relative viability does the source give for NCI-H1650 here?
A: 0.97

Q: NCI-H1915 was tested. Which relative viability did it give?
A: 0.933

Q: How did the relative viability turn out when NCI-H2087 was run?
A: 0.906

Q: HCC-366 was tested. Which relative viability did it give?
A: 0.964

Q: For NCI-H1793, which relative viability is on record?
A: 0.805

Q: RERF-LC-KJ was tested. Which relative viability did it give?
A: 0.804

Q: How did the relative viability turn out when EMC-BAC-2 was run?
A: 0.954

Q: How did the relative viability turn out when LCLC-97TM1 was run?
A: 0.861

Q: With NCI-H1651 as the cell line, how does the relative viability read?
A: 0.921

Q: With NCI-H2170 as the cell line, how does the relative viability read?
A: 0.273

Q: How did the relative viability turn out when NCI-H2009 was run?
A: 1.09

Q: Which relative viability does the source give for ABC-1 here?
A: 1.31

Q: For SK-MES-1, which relative viability is on record?
A: 0.523

Q: With NCI-H727 as the cell line, how does the relative viability read?
A: 1.29

Q: Which relative viability does the source give for SW 1573 here?
A: 1.04

same assay, conditions: first compound 8 µM

Q: NCI-H1650 was tested. Which relative viability did it give?
A: 0.581

Q: Which relative viability does the source give for NCI-H1915 here?
A: 1.02

Q: Which relative viability does the source give for NCI-H2087 here?
A: 1.14

Q: How did the relative viability turn out when HCC-366 was run?
A: 0.693

Q: NCI-H1793 was tested. Which relative viability did it give?
A: 0.497

Q: Which relative viability does the source give for RERF-LC-KJ here?
A: 0.84

Q: How did the relative viability turn out when EMC-BAC-2 was run?
A: 0.987

Q: Which relative viability does the source give for LCLC-97TM1 here?
A: 0.289

Q: How did the relative viability turn out when NCI-H1651 was run?
A: 0.636

Q: For NCI-H2170, which relative viability is on record?
A: 0.277

Q: How did the relative viability turn out when NCI-H2009 was run?
A: 0.409

Q: Which relative viability does the source give for ABC-1 here?
A: 1.11

Q: For SK-MES-1, which relative viability is on record?
A: 0.432

Q: NCI-H727 was tested. Which relative viability did it give?
A: 0.869

Q: SW 1573 was tested. Which relative viability did it give?
A: 1.05

compound: CCOC(=O)CCNc1cc(N2CCc3ccccc3CC2)nc(-c2ccccn2)n1 [GSK-J4]; assay: relative viability (nuclei count vs DMSO), 5 days (fraction); higher = more cells survive; settings: 0.5 µM
Procedure, shortened: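 Lung cancer cell lines in 1536-well plates were exposed by pinning to five library-drug doses (not always all listed) √10 apart, following an overnight hold at 37 °C. MetaXpress counted Hoechst-stained nuclei from 4× images taken after 5 days without medium change. Viability is the median ratio of treated-well to vehicle-well nuclei across plates. Plates required control CV below 25% and at least one doubling.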

Q: For NCI-H1650, which relative viability is on record?
A: 1.11

Q: For NCI-H1915, which relative viability is on record?
A: 0.924
